Counter-ions that a name gives are not always drawn.
How the values were obtained:
[1] = DL50 in the dog, intravenous administration; assay type: in vivo, chien; conditions: i.v.; for DL50: relative to vinburnine = 1,0 (arbitrary)
Source text: Les propriétés pharmacologiques du citrate de vinburnine ont été utlisées en thérapie avec de bons résultats.

[2] = tested on: circulation cérébrale (artère carotide interne); test: Cerebral circulation (internal carotid artery) and vascular resistance after intravenous and intra-arterial administration in dogs; assay type: in vivo, chiens; conditions: relative to vinburnine = 1,0 (arbitrary); for CERVEAU Diminution résistance vasculaire i.v. / CERVEAU augmentation circulation i.v.: 1 à 4 mg/kg, 4 mg/kg
Protocol: D'autre part, on a réalisé une étude spr la pression sanguine et la circulation cérébrale en administrant des doses intraveineuses de 1 à 4 mg/kg d'animal.
Dans l'étude de l'effet de ce composé, on a enregistré et calculé la circulation cérébrale (artère carotide interne) et la résistance vasculaire lors de l'administration des composés par voie intraveineuse et intraartérielle chez des chiens. Les valeurs données dans le tableau suivant sont rapportés à la valeur de 1,0 donnée arbitrairement à la vinburnine.

[3] = tested on: consommation cérébrale du C14-desoxyglucose; test: Cerebral consumption of C14-labelled deoxyglucose in dogs (Fig. 1); assay type: in vivo, chiens; conditions: 1 à 4 Mg/kg, C14-deoxyglucose given orally, compared with untreated animal and with vinburnine (Fig. 1)
Source text: (§1) L'invention sera mieux comprise à la lecture du complément de description qui suit se référant aux dessins annexés dans lesquels: • - La Fig.l est une illustration graphique de l'augmentation de consommation cérébrale de desoxyglucose chez un animal traité avec le citrate de vinburnine • - La Fig.2, est une illustration graphique de l'augmentation de la dissociation de l'oxyhémoglobine chez un animal traité avec le citrate de vinburnine. Dans l'étude sur l'augmentation de la consommation du glucose, on a utilisé des doses de 1 à 4 Mg/kg de citrate de vinburnine chez des chiens auxquels on administre du deoxyglucose marqué au C14, par voie orale.
(§2) Cette différence observée dans l'importance de la dissociation de l'oxyhémoglobine par la vinburnine et le citrate de vinburnine est illustrée sur le graphique de la Fig.2.

oxyhémoglobine = test: Dissociation of oxyhaemoglobin in anaesthetised dogs (Fig. 2); assay type: in vivo, chiens; conditions: 5mg/kg (Fig. 2)
Source text: as §1, §2

Solubility in water = assay type: physicochemical; conditions: water / aqueous solution

Row | Structure (SMILES) | valeurs de DL50 ([1]; in words, compared with vinburnine base) | DL50 [1] | CERVEAU Diminution résistance vasculaire i.a. [2] | CERVEAU augmentation circulation i.a. [2] | CERVEAU Diminution résistance vasculaire i.v. [2] | CERVEAU augmentation circulation i.v. [2] | consommation cérébrale du C14-desoxyglucose [3] | dissociation de l'oxyhémoglobine (oxyhémoglobine) | solubilité dans l'eau (Solubility in water)
1 | CC[C@]12CCCN3CCc4c(n(c5ccccc45)C(=O)C1)[C@@H]32 [citrate de vinburnine, citrate de (-) vinburnine] | sensiblement inférieures à celles correspondant à la vinburnine sous forme de base | 1,2 | 0,6 | 0,8 | 0,8 | 0,9 | consommation du glucose plus importante | augmentation dans la dissociation de l'oxyhémoglobine | soluble en solution aqueuse
2 | CC[C@]12CCCN3CCc4c(n(c5ccccc45)C(=O)C1)[C@@H]32 [vinburnine] |  | 1,0 | 1,0 | 1,0 | 1,0 | 1,0 | augmentation de la consommation cérébrale du C14-desoxyglucose |  | insoluble dans l'eau

From patent EP0164478A2, “Citric-acid salt of (-)vinburnine and process for its preparation” (COVEX (S.A.), priority 1984, dated 1985)
